The target of one test is T1, USP8 (Homo sapiens, UniProt P40818).
T1 sequence (P40818 1-1118): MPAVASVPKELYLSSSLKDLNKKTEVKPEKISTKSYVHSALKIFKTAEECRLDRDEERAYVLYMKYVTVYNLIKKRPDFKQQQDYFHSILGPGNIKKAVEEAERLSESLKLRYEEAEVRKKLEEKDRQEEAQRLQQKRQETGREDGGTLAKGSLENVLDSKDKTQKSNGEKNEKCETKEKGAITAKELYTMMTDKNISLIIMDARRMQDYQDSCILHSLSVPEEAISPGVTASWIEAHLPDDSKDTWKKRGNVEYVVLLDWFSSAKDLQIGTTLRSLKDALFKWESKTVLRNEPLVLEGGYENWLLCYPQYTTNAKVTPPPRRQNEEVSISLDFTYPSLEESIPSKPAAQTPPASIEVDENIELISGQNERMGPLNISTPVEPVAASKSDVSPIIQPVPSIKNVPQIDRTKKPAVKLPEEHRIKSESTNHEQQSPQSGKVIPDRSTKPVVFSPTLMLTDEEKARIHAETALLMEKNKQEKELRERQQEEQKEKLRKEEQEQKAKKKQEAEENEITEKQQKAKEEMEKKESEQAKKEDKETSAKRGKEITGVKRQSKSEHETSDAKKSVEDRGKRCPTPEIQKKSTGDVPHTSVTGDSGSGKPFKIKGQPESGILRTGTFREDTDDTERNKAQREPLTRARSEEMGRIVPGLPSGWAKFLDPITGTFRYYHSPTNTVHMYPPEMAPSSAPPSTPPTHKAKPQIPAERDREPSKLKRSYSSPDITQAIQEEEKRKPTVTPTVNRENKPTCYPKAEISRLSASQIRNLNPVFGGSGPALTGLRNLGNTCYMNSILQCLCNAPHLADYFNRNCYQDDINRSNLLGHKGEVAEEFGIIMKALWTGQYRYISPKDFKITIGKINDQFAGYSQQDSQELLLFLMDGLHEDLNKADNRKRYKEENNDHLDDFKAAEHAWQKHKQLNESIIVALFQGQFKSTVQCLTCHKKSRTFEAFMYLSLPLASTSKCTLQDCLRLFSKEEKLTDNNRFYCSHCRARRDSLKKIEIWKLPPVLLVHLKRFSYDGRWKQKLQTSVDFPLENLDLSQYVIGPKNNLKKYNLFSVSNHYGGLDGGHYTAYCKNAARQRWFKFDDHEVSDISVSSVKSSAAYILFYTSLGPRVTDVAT
Description: USP8 activity assay. The format is biochemical. Conditions: 400 nM Ub-AMC, pH8.8, 30 min pre-incubation at 25° C., 60 min at 37° C.; sigmoidal fit; AF: Autofluorescent; read-out: USP 8 (inhibition of cysteine protease activity).

A further test concerns the target T2, Caspase 3 (Homo sapiens, UniProt P42574).
T2 sequence (P42574 29-175 limits assumed): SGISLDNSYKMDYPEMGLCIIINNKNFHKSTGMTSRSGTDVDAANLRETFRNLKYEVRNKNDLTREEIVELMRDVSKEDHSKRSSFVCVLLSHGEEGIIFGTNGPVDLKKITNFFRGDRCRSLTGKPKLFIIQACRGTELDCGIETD
T2 sequence (P42574 176-277 limits assumed): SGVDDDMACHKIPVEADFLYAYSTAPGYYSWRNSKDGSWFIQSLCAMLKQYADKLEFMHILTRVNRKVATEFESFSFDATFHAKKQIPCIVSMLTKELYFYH
Description: Caspase 3 activity assay. Type of test: biochemical. As to conditions: 500 nM Ac-DEVD-AMC, 3.2 nM enzyme, 30 min pre-incubation at 25° C., 60 min at 37° C.; sigmoidal fit; AF: Autofluorescent; read-out: Casp3 (inhibition of cysteine protease activity). The method, then: Compounds stocks (100 mM) were stored at −20° C. in DMSO. […] Reactions were performed as duplicates in Black LJL 96 well plates (HE microplates; Molecular Devices; 20 μl final reaction volume). The substrate concentration for caspase 3 specificity assay was 500 nM (Ac-DEVD-AMC; Promega). […] The concentrations were determined in order to perform specificity assays under initial velocities at fixed substrate concentration. Compounds were pre-incubated with enzymes for 30 minutes at 25° C. Reactions were initiated by addition of substrate to the plates containing the enzymes (+/−compounds) diluted in assay buffer. Reactions were incubated for 60 minutes at 37° C. Reactions were stopped by adding acetic acid (100 mM final). Readings were performed on a Pherastar Fluorescent Reader (BMG). δ Emission 380 nm; δ Excitation=460 nm. Data (mean values+/− standard deviation) were analyzed as % of control (no compound) and plotted as percentage versus the Log of the compound concentration using GraphPad (Prism). Data were fitted to a sigmoidal model (variable slope).

Another test concerns the target Cathepsin B (Homo sapiens, UniProt P07858). Description: Cathepsin B activity assay. The format is biochemical. Conditions: 36 μM z-RR-AMC, 3.6 nM enzyme, 30 min pre-incubation at 25° C., 60 min at 37° C.; sigmoidal fit; AF: Autofluorescent; read-out: cathepB (inhibition of cysteine protease activity). As to the method: Cathepsin B was diluted in Cathepsin B buffer (20 mM Tris HCl pH 6.8; 1 mM EDTA; 1 mM DTT). Compounds stocks (100 mM) were stored at −20° C. in DMSO. […] Reactions were performed as duplicates in Black LJL 96 well plates (HE microplates; Molecular Devices; 20 μl final reaction volume). The substrate concentration for cathepsin B specificity assay was 36 μM (z-RR-AMC; Calbiochem). The concentration of the enzyme (Cathepsin B) in specificity assays was 3.6 nM. The concentrations were determined in order to perform specificity assays under initial velocities at fixed substrate concentration. Compounds were pre-incubated with enzymes for 30 minutes at 25° C. Reactions were initiated by addition of substrate to the plates containing the enzymes (+/− compounds) diluted in assay buffer. Reactions were incubated for 60 minutes at 37° C. Reactions were stopped by adding acetic acid (100 mM final). Readings were performed on a Pherastar Fluorescent Reader (BMG). δ Emission 380 nm; 6 Excitation=460 nm. Data (mean values+/− standard deviation) were analyzed as % of control (no compound) and plotted as percentage versus the Log of the compound concentration using GraphPad (Prism). Data were fitted to a sigmoidal model (variable slope).

Test [1] deals with HCT116 colon cancer cells. In words: HCT116 cell viability and proliferation assay (MTS). The format is cell-based. As to conditions: Homo sapiens, read-out: HCT116 D3 GI50.
Test [2] deals with PC-3 prostate cancer cells. Description: PC3 cell viability and proliferation assay (MTS). Type of test: cell-based. As to conditions: Homo sapiens, PC-3, 72 h, read-out: PC3 D3 GI50.
Where [3] appears, read: HCT-116, HCT116 cells, 72 hours incubation, MTS, mean of 3 independent experiments.
[4] abbreviates: PC3 cells, 72 hours incubation, MTS, mean of 3 independent experiments.

Like-named read-outs stand apart in the source and are kept apart here.

A word on the GI50: it is the concentration that inhibits growth by half.

For the compound `CC(=O)O/N=C1\c2ccccc2-c2nc(C(N)=O)c(C#N)nc21` (single isomer, unassigned) [Example 35, 2-cyano-9-acetoxyimino-9H-indeno[1,2-b]pyrazine-3-carboxylic acid amide], the IC50 worked out at 0.027 µM on USP8, 0.12 µM at Caspase 3 and 11.5 µM on Cathepsin B. Moreover, the GI50 in test [1] (HCT-116, 72 h) amounted to 1.35 µM; in test [2], 1.28 µM.

Turning to `N#Cc1nc2c(nc1C#N)-c1ccccc1C2=O` [Example 1, 9-oxo-9H-indeno[1,2-b]pyrazine-2,3-dicarbonitrile], the IC50 at USP8 is 0.29 µM; at Caspase 3 it was 0.69 µM; at Cathepsin B, 12 µM. In addition, the GI50 in test [1] (setting [3]) was found to be 0.15 µM; in test [2] (setting [4]), 0.61 µM.

For `COc1nc2c(nc1C#N)C(=O)c1ccccc1-2` [Example 3, 3-methoxy-9-oxo-9H-indeno[1,2-b]pyrazine-2-carbonitrile], the results for the IC50 on USP8, at Caspase 3 and on Cathepsin B were 31 µM, over 100 µM and over 100 µM, respectively. Moreover, the GI50 in test [1] (setting [3]) and in test [2] (setting [4]) was over 10 µM throughout.

On to `CN(C)c1nc2c(nc1C#N)C(=O)c1ccccc1-2` [Example 4, 3-dimethylamino-9-oxo-9H-indeno[1,2-b]pyrazine-2-carbonitrile], for which the IC50 at USP8, at Caspase 3 and on Cathepsin B was over 100 µM in each case. Also, the GI50 in test [1] (setting [3]) and in test [2] (setting [4]) was over 10 µM in each case.

In the case of `COCCOc1nc2c(nc1C#N)C(=O)c1ccccc1-2` [Example 5, 3-(2-methoxy-ethoxy)-9-oxo-9H-indeno[1,2-b]pyrazine-2-carbonitrile], the IC50 at USP8 is 53 µM; at Caspase 3, over 100 µM; on Cathepsin B, over 100 µM. Besides, the GI50 in test [1] (setting [3]) and in test [2] (setting [4]) was over 10 µM each time.

In the case of `N#Cc1nc2c(nc1O)-c1ccccc1C2=O` [Example 6, 3-hydroxy-9-oxo-9H-indeno[1,2-b]pyrazine-2-carbonitrile], the IC50 at USP8 is 8.4 µM; at Caspase 3, 9.3 µM; on Cathepsin B, over 100 µM. The GI50 in test [1] (setting [3]) and in test [2] (setting [4]) was over 10 µM in each case.

In the case of `N#Cc1nc2c(nc1N)-c1ccccc1C2=O` [Example 7, 3-amino-9-oxo-9H-indeno[1,2-b]pyrazine-2-carbonitrile], the IC50 is 48 µM at USP8, over 100 µM at Caspase 3 and over 100 µM on Cathepsin B. The GI50 in test [1] (setting [3]) and in test [2] (setting [4]) was over 10 µM each time.

Consider `N#Cc1nc2c(nc1N1CCC(F)(F)CC1)-c1ccccc1C2=O` [Example 8, 3-(4,4-difluoro-piperidin-1-yl)-9-oxo-9H-indeno[1,2-b]-pyrazine-2-carbonitrile], for which the IC50 on USP8, at Caspase 3 and at Cathepsin B was over 100 µM each time. Also, the GI50 in test [1] (setting [3]) and in test [2] (setting [4]) was over 10 µM in each case.

Regarding `N#Cc1nc2c(nc1Cl)-c1ccccc1C2=O` [Example 9, 3-chloro-9-oxo-9H-indeno[1,2-b]pyrazine-2-carbonitrile], the IC50 at USP8 is 16.2 µM; on Caspase 3, over 100 µM; on Cathepsin B it was over 100 µM. In addition, the GI50 in test [1] (setting [3]) and in test [2] (setting [4]) was over 10 µM throughout.

On to `N#Cc1nc2c(nc1C#N)C1(OCCO1)c1ccccc1-2` [Example 10], for which the IC50 at USP8 was 13 µM; at Caspase 3, over 100 µM; on Cathepsin B it was over 100 µM. The GI50 is 3.4 µM in test [1] (setting [3]) and 4.4 µM in test [2] (setting [4]).

Turning to `N#Cc1nc2c(nc1C#N)-c1ccccc1C2=NO` [Example 12, 9-[hydroxyimino]-9H-indeno[1,2-b]pyrazine-2,3-dicarbonitrile], the values for the IC50 at USP8, at Caspase 3 and at Cathepsin B were 7 µM, 5.6 µM and 21 µM, respectively. The values for the GI50 in test [1] (setting [3]) and in test [2] (setting [4]) were 6.5 µM and 4.4 µM, respectively.

`CON=C1c2ccccc2-c2nc(C#N)c(C#N)nc21` [Example 13a, 9-(methoxyimino)-9H-indeno[1,2-b]pyrazine-2,3-dicarbonitrile]: the values for the IC50 on USP8, on Caspase 3 and at Cathepsin B were 0.98 µM, 52 µM and over 100 µM, respectively. The 50% growth inhibitory concentration (GI50) turned out to be 0.39 µM in test [1] (HCT-116, 72 h) and 0.43 µM in test [2].

As for `N#Cc1nc2c(nc1C#N)-c1ccccc1/C2=N/Oc1ccccc1` [Example 13e, 9-Phenoxyimino-9H-indeno[1,2-b]pyrazine-2,3-dicarbonitrile], the IC50 at USP8 is 0.24 µM; at Caspase 3 it was over 100 µM; on Cathepsin B it was over 100 µM. For the same compound, the GI50 in test [1] (setting [3]) turned out to be 0.54 µM; in test [2] (setting [4]), 0.53 µM.

Consider `Cc1cccc2c1Cc1nc(C#N)c(C#N)nc1-2` [Example 16c, 8-Methyl-9H-indeno[1,2-b]pyrazine-2,3-dicarbonitrile], for which the IC50 at USP8, at Caspase 3 and on Cathepsin B was over 100 µM in each case. Further, the results for the 50% growth inhibitory concentration (GI50) in test [1] (setting [3]) and in test [2] (setting [4]) were 1.47 µM and 3.37 µM, respectively.

Take `COc1cc2c(cc1OC)-c1nc(C#N)c(C#N)nc1C2=O` [Example 17b, 6,7-Dimethoxy-9-oxo-9H-indeno[1,2-b]pyrazine-2,3-dicarbonitrile]: the IC50 was 2.5 µM on USP8, 51 µM at Caspase 3 and over 100 µM at Cathepsin B. Besides, the figures for the 50% growth inhibitory concentration (GI50) in test [1] (setting [3]) and in test [2] (setting [4]) were 0.53 µM and 0.92 µM, respectively.

With `Cc1cccc2c1C(=O)c1nc(C#N)c(C#N)nc1-2` [Example 17c, 8-Methyl-9-oxo-9H-indeno[1,2-b]pyrazine-2,3-dicarbonitrile], the IC50 on USP8 was 3.1 µM; on Caspase 3, 13 µM; on Cathepsin B it was over 100 µM. Also, the GI50 is 0.39 µM in test [1] (setting [3]) and 0.93 µM in test [2] (setting [4]).

The values above are taken from patent publication US8648076B2, “Cysteine protease inhibitors and their therapeutic applications” (Hybrigenics SA, priority 2005, dated 2014).
